pIC50: −log10 of the molar value.

T1 sequence (P14902 whole entry): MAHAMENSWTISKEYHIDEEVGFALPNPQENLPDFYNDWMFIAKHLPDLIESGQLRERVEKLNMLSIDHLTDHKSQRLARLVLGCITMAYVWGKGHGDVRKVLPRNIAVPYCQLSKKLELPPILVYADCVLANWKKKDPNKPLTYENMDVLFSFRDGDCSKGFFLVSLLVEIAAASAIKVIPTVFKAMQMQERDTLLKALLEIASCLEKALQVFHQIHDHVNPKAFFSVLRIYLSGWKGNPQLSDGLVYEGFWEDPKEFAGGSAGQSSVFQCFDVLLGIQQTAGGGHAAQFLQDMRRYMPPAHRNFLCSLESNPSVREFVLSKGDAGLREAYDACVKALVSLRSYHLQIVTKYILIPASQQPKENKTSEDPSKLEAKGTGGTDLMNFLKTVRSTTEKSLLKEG

One test concerns the target T1, human IDO1 (Homo sapiens, UniProt P14902). As to the kind of experiment: Assessment of human IDO-1 inhibitory activity in Hela cells (Interferon-gamma activated, Ehrlich reagent, absorbance at 490 nm). Format: cell-based. Also on record: endogenous in cells; host or cells: HeLa cells stimulated with interferon-gamma. The conditions noted are these: 18 hours. On the procedure:
Exemplary compounds were tested for inhibition of IDO activity.
HeLa cells were seeded at 20,000 cells per 30 µL per well with RPMI/phenol red free media containing 10% FBS in a 384-well tissue culture plate (black with clear bottoms). 50 nL of compound was added to cells and incubated at 37° C. for one hour. 20 μL of the recombinant human Interferon-gamma (R&D System, Cat. #285-IF, at final concentration of 10 ng/ml) or recombinant murine Interferon-gamma (PEPROTECH® Inc., Cat. #315-05, final concentration of 5 ng/ml) was added to activate IDO signaling. The cells were incubated for 18 hours in 37° C. incubator with 5% CO2.
Compound treatment was stopped by adding 5 μl trichloroacetic acid to a final concentration of 3%. Subsequently, the cell plate was further incubated at 50° C. for 30 minute. An equal volume supernatant (20 μL) and 2% (w/v) Ehrlich reagent (4-dimethylaminobenzaldehyde) in glacial acetic acid were mixed in a new clear bottom 384-well plate. This plate was incubated at room temperature for 30 minutes. Absorbance at 490 nm was measured on Envision plate reader.
Compound IC50 values were calculated using counts from unstimulated (no INF-gamma treatment) wells as 100% inhibition. INF-gamma treatment without compound treatment as 0% inhibition.
Molecule `CCC(CC(=O)O)c1cc(F)c(N(CC)C2CCOCC2)c(Nc2ccc(Cl)cc2)c1` (single isomer, unassigned) [Example 144, 3-(3-((4-chlorophenyl)amino)-4-(ethyl (tetrahydro-2H-pyran-4-yl)amino)-5-fluorophenyl)pentanoic acid] showed a negative-log IC50 (pIC50) of more than 8.30.

Molecule `COCC(CC(=O)O)c1ccc(N2CCC(c3ccccc3)CC2)c(Nc2ccc(C#N)cc2)c1` (single isomer, unassigned) [Example 1350 E2, 3-(3-((4-Cyanophenyl)amino)-4-(4-phenylpiperidin-1-yl)phenyl)-4-methoxybutanoic acid] gave a negative logarithm of the IC50 (pIC50) of more than 8.30. The same measure, in the same setting: the same measure for `CCC1COCCN1c1ccc([C@H](COC)CC(=O)O)cc1Nc1ccc(F)cn1` (single isomer, unassigned) [Example 1310]: less than 7.30.

The molecule “3-(3-((4-cyanophenyl)amino)-4-(ethyl (tetrahydro-2H-pyran-4-yl)amino) phenyl)-3-methylpentanoic acid [Example 27]” had a negative-log IC50 (pIC50) of more than 8.30. The molecule `CCCN(c1ccc(C(CC)CC(=O)O)cc1Nc1cnc(OCC)nc1)C1CCS(=O)(=O)CC1` (single isomer, unassigned) [Example 13 Enantiomer 2, 3-(4-((1,1-Dioxidotetrahydro-2h-thiopyran-4-yl)(propyl)amino)-3-((2-ethoxypyrimidin-5-yl)amino)phenyl)pentanoic acid] gave a negative logarithm of the IC50 (pIC50) of more than 7.30. The same measure, in the same setting: for “3-(5-((4-chlorophenyl) amino)-4-(ethyl(tetrahydro- 2H-pyran-4-yl)amino)-2- fluorophenyl)-4- methoxybutanoic acid [Example 852]” the value was more than 7.30; for `COCC(CC(=O)O)c1ccc(NC2CCOCC2)c(Nc2ccc(C#N)cc2)c1` (single isomer, unassigned) [Example 928 E2, 3-(3-((4-Cyanophenyl)amino)-4-((tetrahydro-2H-pyran-4-yl)amino)phenyl)-4-methoxybutanoic acid], less than 7.30; for `Cc1ccc(NC(=O)Nc2cc(C(C)CC(=O)O)ccc2N2C[C@@H](C)O[C@@H](C)C2)cc1` (single isomer, unassigned) [Example 753], less than 7.30. `CCC(CC(=O)O)c1cc(Nc2ccc(Cl)cc2)c(N(CC)C2CCOCC2)cc1F` (single isomer, unassigned) [Example 861, 3-(5-((4-Chlorophenyl)amino)-4-(ethyl(tetrahydro-2H-pyran-4-yl)amino)-2-fluorophenyl)pentanoic acid] showed a negative logarithm of the IC50 (pIC50) of more than 8.30. The same measure, in the same setting: for “(S)-3-(4-((1,1-dioxidotetrahydro-2H-thiopyran-4-yl)(ethyl)amino)-3-((2-ethoxypyrimidin-5-yl)amino)phenyl)-4-isopropoxybutanoic acid [Example 328]” the value was less than 7.30; for `CCN(c1ccc([C@H](COC)CC(=O)O)cc1Nc1cccc(OC(F)(F)C(F)F)c1)C1CCOCC1` [Example 398, (R)-3-(4-(ethyl(tetrahydro-2H-pyran-4-yl)amino)-3-((3-(1,1,2,2-tetrafluoroethoxy)phenyl)amino)phenyl)-4-methoxybutanoic acid], more than 8.30; for `CCCN(c1ccc(C(CC)CC(=O)O)cc1NC(=O)Nc1ccc(C)cc1)C1CCS(=O)(=O)CC1` (single isomer, unassigned) [Example 14 Enantiomer 2, 3-(4-((1,1-Dioxidotetrahydro-2h-thiopyran-4-yl)(propyl)amino)-3-(3-(p-tolyl)ureido)phenyl)pentanoic acid], less than 7.30. Still for that read-out and setting: for `CCOc1ncc(Nc2cc(C(CC)CC(=O)O)ccc2N(C)C2CCOCC2)cn1` (single isomer, unassigned) [Example 872, 3-(3-((2-ethoxypyrimidin-5-yl)amino)-4-(methyl (tetrahydro-2H-pyran-4-yl)amino)phenyl)pentanoic acid] the value was more than 7.30.

`CCN(c1ccc([C@@H](COC)CC(=O)O)cc1Nc1cccc(OC(F)(F)C(F)F)c1)C1CCOCC1` [Example 361, (S)-3-(4-(ethyl(tetrahydro-2H-pyran-4-yl)amino)-3-((3-(1,1,2,2-tetrafluoroethoxy)phenyl)amino)phenyl)-4-methoxybutanoic acid] gave a pIC50 of more than 8.30. For the molecule `COCC(CC(=O)O)c1ccc(N(C)C2CCOCC2)c(Nc2ccc(C#N)cc2)c1` (single isomer, unassigned) [Example 880, 3-(3-((4-Cyanophenyl)amino)-4-(methyl(tetrahydro-2H-pyran-4-yl)amino)phenyl)-4-methoxybutanoic acid], the pIC50 was more than 7.30.

The molecule “(R)-3-(3-((4-chlorophenyl)amino)-4-((1,1-dioxidotetrahydro-2H-thiopyran-4-yl)(ethyl)amino)phenyl)-4-isopropoxybutanoic acid [Example 330]” had a negative-log IC50 (pIC50) of more than 8.30. The molecule `COCC(CC(=O)O)c1ccc(N2CCOC[C@H]2C(C)C)c(NC(=O)Nc2ccc(C#N)cc2)c1` (single isomer, unassigned) [Example 915] had a negative logarithm of the IC50 (pIC50) of less than 7.30. Still for that read-out and setting: for `CCOc1ncc(Nc2cc(C(CC(=O)O)C3CC3)ccc2N2C[C@@H](C)O[C@@H](C)C2)cn1` (single isomer, unassigned) [Example 249] the value was less than 7.30. On to `CCC1COCCN1c1ccc([C@@H](COC)CC(=O)O)cc1Nc1cnc(OC)nc1` (single isomer, unassigned) [Example 1298], for which the negative-log IC50 (pIC50) was less than 7.30. `CCOc1ncc(Nc2cc(C(CC)CC(=O)O)ccc2N(CC)C2CCOC2)cn1` (single isomer, unassigned) [947 D1] gave a pIC50 of more than 7.30. The molecule `CCCN(c1ccc([C@@H](COC)CC(=O)O)cc1Nc1cnc(OCC2CC2)nc1)C1CCOCC1` (single isomer, unassigned) [Example 543] showed a pIC50 of more than 8.30.

Another test has as its target T1, human IDO1. Briefly: Assessment of human IDO-1 inhibitory activity in HEK cells (human IDO1/HEK293 cells, Ehrlich reagent, absorbance at 490 nm). The class given is cell-based. Also on record: expressed in transfected cells. The conditions noted are these: In Vitro Potency in the HEK Human IDO-1 Cellular Assay. Put shortly: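 Stable human IDO1-expressing HEK293 cells treated with compound for 20 h at 37 °C in phenol red-free RPMI/10% FBS. Stopped with 0.2% TCA (final) and heated 30 min at 50 °C; supernatant mixed with Ehrlich reagent, absorbance read at 490 nm. IC50 normalised to DMSO (0%) and 500 nM reference standard (100% inhibition).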
In turn, `CCC(CC(=O)O)c1cc(F)c(N(CC(C)C)CC(C)C)c(Nc2ccc(F)cc2)c1` (single isomer, unassigned) [Example 116, 3-(4-(diisobutylamino)-3-fluoro-5-((4-fluorophenyl)amino)phenyl)pentanoic acid] had a pIC50 of more than 8.30. Same read-out and setting: the same measure for `CCC(CC(=O)O)c1ccc(N2CCC[C@H]2C(C)(C)O)c(Nc2ccnc(N3CCOCC3)n2)c1` (single isomer, unassigned) [Example 832]: less than 7.30. As for `COCC(CC(=O)OC)c1ccc(N(CC(C)C)C2CCC(OC)CC2)c(NC(=O)Nc2ccc(Cl)cc2F)c1` (racemic) [Example 1148], the pIC50 is less than 7.30. For `CCC(CC(=O)O)c1ccc(N(CC(C)C)C2CCCCC2)c(Nc2cnc(OC(C)C)nc2)c1` (single isomer, unassigned) [Example 655, 3-(4-(cyclohexyl(isobutyl)amino)-3-((2-isopropoxypyrimidin-5-yl)amino)phenyl)pentanoic acid], the pIC50 is more than 8.30.

Take `Cc1ccc(NC(=O)Nc2cc(C(CC(=O)O)C3CC3)ccc2N(CC(C)C)C2CCOCC2)cc1` (single isomer, unassigned) [1202 E2]: the pIC50 was more than 8.30. Turning to `COCC(CC(=O)O)c1cc(F)c(N(CC(C)C)C2CCCCC2)c(NC(=O)Nc2ccc(C)cc2)c1` (single isomer, unassigned) [Example 1161, 3-(4-(cyclohexyl(isobutyl)amino)-3-fluoro-5-(3-(p-tolyl)ureido)phenyl)-4-methoxybutanoic acid], the pIC50 was more than 8.30. As for `CCC(CC(=O)O)c1ccc(N(CC(C)C)C2CCCCC2)c(Nc2ccc(Cl)c(OCC(F)F)c2)c1` (single isomer, unassigned) [Example 650, 3-(3-((4-chloro-3-(2,2-difluoroethoxy)phenyl)amino)-4-(cyclohexyl(isobutyl)amino)phenyl)pentanoic acid], the negative logarithm of the IC50 (pIC50) is more than 8.30. The same measure, in the same setting: the same measure for `CCC(CC(=O)O)c1cc(F)c(N(CC(C)C)CC(C)C)c(NC(=O)Cc2ccc(C)cc2)c1` (single isomer, unassigned) [Example 980-2]: more than 8.30; for `CCC(CC(=O)O)c1cc(F)c(N(CC(C)C)CC(C)C)c(Nc2ccc(C#N)cc2)c1` (single isomer, unassigned) [Example 123, 3-(3-((4-cyanophenyl)amino)-4-(diisobutylamino)-5-fluorophenyl)pentanoic acid]: more than 8.30; for `CCC(CC(=O)O)c1cc(F)c(N(CC(C)C)CC(C)C)c(NC(=O)Nc2ccc(Cl)cc2F)c1` (single isomer, unassigned) [Example 981-2]: more than 8.30. Turning to `CC(C)CN(c1ccc(C(C)CC(=O)O)cc1NC(=O)Nc1cncnc1)C1CCOCC1` (single isomer, unassigned) [Example 964, 3-(4-(isobutyl(tetrahydro-2H-pyran-4-yl)amino)-3-(3-(pyrimidin-5-yl)ureido)phenyl) butanoic acid], the negative logarithm of the IC50 (pIC50) was less than 7.30. Same read-out and setting: for `CCC(CC(=O)O)c1ccc(N(CC2CC2)C2CCOCC2)c(Nc2ccc(Cl)cc2)c1` (single isomer, unassigned) [Example 708, 3-(3-((4-chlorophenyl)amino)-4-((cyclopropylmethyl)(tetrahydro-2H-pyran-4-yl)amino)phenyl)pentanoic acid] the value was more than 8.30.

In general, pIC50 refers to −log10 of the IC50, conventionally taken in molar units. A lower pIC50 goes with a large IC50.

Values taken from patent publication US10399932B2, “Inhibitors of indoleamine-2,3-dioxygenase for the treatment of cancer” (BRISTOL-MYERS SQUIBB COMPANY, priority 2015, dated 2019).
